Results reported in US8207216B2, “Benzofuran-3-yl(indol-3-yl) maleimides as potent GSK3 inhibitors” (The Board of Trustees of the University of Illinois, priority 2006, dated 2012).

Legend:
[1] = target: T1, recombinant human His6-GSK-3β (Homo sapiens, UniProt P49841); assay: GSK-3β kinase assay, [γ32P] transfer to primed glycogen synthase peptide; type: biochemical; settings: for IC50: 10 μM ATP, 10 μM pGSM peptide, 30 minutes at 30° C., read-out: IC50 (nM), GSK-3β inhibition;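 on all read-outs here: phosphate incorporation quantified by liquid scintillation counting of the filters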
T1 construct: His6; purchased EMD Biosciences
T1 sequence (P49841 whole entry): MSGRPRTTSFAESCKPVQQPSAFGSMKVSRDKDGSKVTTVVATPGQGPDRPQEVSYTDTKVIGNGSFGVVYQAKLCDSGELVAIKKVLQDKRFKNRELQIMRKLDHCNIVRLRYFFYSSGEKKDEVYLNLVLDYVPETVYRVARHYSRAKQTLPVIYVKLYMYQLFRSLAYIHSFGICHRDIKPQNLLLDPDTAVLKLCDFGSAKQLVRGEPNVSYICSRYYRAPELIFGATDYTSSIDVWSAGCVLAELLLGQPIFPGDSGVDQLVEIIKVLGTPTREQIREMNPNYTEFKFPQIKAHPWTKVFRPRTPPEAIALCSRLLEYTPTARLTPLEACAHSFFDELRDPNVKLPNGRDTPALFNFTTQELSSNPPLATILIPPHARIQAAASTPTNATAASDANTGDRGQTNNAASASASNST

GSK3α = GSK3α (Homo sapiens, UniProt P49840); assay: Inhibition of various kinases (% inhibition); type: biochemical
GSK3α, sequence (P49840 whole entry, species assumed): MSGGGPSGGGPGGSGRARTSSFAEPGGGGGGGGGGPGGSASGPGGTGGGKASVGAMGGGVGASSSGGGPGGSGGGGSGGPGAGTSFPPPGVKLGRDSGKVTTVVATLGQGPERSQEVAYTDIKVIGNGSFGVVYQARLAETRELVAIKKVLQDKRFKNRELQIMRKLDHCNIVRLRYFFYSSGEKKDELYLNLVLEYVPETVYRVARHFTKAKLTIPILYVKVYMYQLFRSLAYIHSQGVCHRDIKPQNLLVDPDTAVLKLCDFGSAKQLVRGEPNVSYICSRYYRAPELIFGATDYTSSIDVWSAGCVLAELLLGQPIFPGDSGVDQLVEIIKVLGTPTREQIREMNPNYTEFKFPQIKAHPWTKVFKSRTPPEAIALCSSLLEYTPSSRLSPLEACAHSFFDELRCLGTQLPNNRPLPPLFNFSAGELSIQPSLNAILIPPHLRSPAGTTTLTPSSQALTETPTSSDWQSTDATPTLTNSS
Description: (§1) Additional examples of selectivity are illustrated in Table 4.

PKCβ2 = PKCβ2 (Homo sapiens, UniProt P05771); assay: Inhibition of various kinases (% inhibition); type: biochemical
PKCβ2, sequence (P05771 1-673 isoform P05771-2): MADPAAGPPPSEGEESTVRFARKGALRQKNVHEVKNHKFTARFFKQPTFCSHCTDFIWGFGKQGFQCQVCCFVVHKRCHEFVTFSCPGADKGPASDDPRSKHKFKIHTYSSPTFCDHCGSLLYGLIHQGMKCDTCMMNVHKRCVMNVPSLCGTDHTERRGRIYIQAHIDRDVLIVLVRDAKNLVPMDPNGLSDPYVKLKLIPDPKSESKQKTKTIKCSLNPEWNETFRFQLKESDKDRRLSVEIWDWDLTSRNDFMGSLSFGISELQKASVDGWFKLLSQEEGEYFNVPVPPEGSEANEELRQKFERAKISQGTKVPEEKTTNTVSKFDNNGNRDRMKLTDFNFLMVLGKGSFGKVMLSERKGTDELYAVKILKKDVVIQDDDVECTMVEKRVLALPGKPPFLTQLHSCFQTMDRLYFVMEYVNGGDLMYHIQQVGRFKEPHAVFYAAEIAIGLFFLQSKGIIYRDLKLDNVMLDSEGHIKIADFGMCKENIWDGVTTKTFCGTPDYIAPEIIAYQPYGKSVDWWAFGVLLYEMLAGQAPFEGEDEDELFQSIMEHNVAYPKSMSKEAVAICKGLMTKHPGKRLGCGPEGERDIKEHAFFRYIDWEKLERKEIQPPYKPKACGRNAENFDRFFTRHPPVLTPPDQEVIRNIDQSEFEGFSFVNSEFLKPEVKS
Description: as §1

CDK2 = CDK2 (Homo sapiens, UniProt P24941); assay: Inhibition of various kinases (% inhibition); type: biochemical
Description: as §1

PDK1 = target: T2, PDK1 (Homo sapiens, UniProt O15530); assay: Inhibition of various kinases (% inhibition); type: biochemical
T2 sequence (O15530 1-556): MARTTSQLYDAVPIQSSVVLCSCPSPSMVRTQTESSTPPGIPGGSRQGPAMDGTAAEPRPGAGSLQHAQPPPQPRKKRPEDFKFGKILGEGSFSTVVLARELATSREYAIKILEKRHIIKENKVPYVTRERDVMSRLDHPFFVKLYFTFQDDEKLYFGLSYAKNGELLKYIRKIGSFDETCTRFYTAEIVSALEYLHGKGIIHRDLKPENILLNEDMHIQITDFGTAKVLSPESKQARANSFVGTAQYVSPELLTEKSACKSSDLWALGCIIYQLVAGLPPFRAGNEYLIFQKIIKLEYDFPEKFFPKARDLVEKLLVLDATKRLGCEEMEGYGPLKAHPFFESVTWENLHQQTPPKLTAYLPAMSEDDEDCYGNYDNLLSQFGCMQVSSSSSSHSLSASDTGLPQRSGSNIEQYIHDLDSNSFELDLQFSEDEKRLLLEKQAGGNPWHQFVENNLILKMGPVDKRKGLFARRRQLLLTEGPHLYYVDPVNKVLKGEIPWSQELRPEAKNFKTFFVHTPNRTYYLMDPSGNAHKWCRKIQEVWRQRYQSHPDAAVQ
Description: as §1

CDK-2/cyclinE = CDK-2/cyclinE (Homo sapiens, UniProt P24941); assay: CDK-2/CyclinE inhibition (Reaction Biology); type: biochemical; settings: for IC50 Ratio CDK-2/cyclinE GSK-3β: selectivity ratio; for IC50: tested at Reaction Biology, Inc.
[2] = system: pancreatic cancer cell lines; assay: Proliferation and survival of pancreatic cancer cells (overall statements); type: cell-based; settings: based on data of Table 5
Procedure: (§2) The pancreatic cancer cell lines BxPc-3, HupT3, MiaPaCa-2, Panc 04.03, and SU86.86 were obtained from ATCC (Rockville, Md.) and were grown in medium (DMEM or RPMI) containing 10% fetal calf serum and L-glutamine. Pancreatic cancer cells were plated out in duplicate into 6-wells of a 96-well microtiter plate at 2.5−4×10^3 cells per well. Four-hours post plating, individual wells were treated with diluent (DMSO) or varying concentrations of commercial compounds, AR-A014418 and SB216763, or the indicated GSK inhibitors of this invention from a concentration of 1 nM to 50 microM. […] The IC50s were calculated using XLfit (IDBS Limited, Guildford, UK).

MIAPaCa-2 = assay: Antiproliferation MTS assay, pancreatic cancer cells; type: cell-based; settings: Homo sapiens
BXPC-3 = assay: as above; type: cell-based; settings: Homo sapiens
HupT3 = assay: as above; type: cell-based; settings: Homo sapiens
CDK-6/cyclinD3 = CDK-6/cyclinD3 (Homo sapiens, UniProt Q00534); assay: CDK panel (Reaction Biology); type: biochemical; settings: tested at Reaction Biology, Inc.
CDK-6/cyclinD3, sequence (Q00534 whole entry, species assumed): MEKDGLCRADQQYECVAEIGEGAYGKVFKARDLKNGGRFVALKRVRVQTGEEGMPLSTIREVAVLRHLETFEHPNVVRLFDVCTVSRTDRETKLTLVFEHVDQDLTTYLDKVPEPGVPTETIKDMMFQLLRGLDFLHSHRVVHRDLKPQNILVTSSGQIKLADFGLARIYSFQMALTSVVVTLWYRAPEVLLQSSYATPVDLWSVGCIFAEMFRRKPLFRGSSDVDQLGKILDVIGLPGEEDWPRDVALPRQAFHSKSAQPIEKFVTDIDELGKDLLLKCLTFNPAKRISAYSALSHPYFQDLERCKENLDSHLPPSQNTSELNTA
CDK-6/cyclinD3, sequence (P30281 whole entry partner, species assumed): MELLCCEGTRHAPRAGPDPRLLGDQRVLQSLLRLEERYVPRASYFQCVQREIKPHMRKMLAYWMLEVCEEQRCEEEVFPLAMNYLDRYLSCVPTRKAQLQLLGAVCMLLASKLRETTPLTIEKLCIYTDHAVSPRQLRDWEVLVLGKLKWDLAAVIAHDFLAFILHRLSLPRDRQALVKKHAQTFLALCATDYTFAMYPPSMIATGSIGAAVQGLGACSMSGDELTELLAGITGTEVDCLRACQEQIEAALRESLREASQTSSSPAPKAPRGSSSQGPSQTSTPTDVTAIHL

CDK-4/cyclinD1 = CDK-4/cyclinD1 (Homo sapiens, UniProt P11802); assay: CDK panel (Reaction Biology); type: biochemical; settings: tested at Reaction Biology, Inc.
CDK-4/cyclinD1, sequence (P11802 whole entry, species assumed): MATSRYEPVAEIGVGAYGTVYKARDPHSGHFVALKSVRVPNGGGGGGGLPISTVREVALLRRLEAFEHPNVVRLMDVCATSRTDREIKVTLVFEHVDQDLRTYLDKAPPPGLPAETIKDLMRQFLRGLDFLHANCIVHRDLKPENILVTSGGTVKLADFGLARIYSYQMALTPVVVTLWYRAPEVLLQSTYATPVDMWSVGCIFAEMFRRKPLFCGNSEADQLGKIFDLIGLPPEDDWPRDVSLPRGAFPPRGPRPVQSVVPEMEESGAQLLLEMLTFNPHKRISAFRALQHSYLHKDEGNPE
CDK-4/cyclinD1, sequence (P24385 whole entry partner, species assumed): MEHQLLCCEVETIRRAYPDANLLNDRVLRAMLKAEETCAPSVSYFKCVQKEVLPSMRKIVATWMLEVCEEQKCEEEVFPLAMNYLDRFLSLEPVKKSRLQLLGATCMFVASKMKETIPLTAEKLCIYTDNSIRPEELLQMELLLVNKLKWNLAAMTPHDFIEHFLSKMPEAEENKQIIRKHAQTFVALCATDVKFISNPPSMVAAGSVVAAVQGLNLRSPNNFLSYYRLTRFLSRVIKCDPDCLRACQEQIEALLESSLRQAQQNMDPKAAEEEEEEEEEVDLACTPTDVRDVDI

CDK-1/cyclinB = CDK-1/cyclinB (Homo sapiens, UniProt P06493); assay: CDK panel (Reaction Biology); type: biochemical; settings: tested at Reaction Biology, Inc.
CDK-1/cyclinB, sequence (P06493 whole entry, species assumed): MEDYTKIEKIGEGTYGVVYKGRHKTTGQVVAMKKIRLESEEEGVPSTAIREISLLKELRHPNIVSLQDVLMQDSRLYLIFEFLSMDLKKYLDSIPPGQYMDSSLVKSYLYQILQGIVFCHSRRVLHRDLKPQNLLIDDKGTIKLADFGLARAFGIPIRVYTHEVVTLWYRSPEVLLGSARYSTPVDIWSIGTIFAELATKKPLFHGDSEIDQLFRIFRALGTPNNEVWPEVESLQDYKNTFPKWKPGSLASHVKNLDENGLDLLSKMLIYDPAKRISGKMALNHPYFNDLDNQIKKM
CDK-1/cyclinB, sequence (P14635 whole entry partner, species assumed): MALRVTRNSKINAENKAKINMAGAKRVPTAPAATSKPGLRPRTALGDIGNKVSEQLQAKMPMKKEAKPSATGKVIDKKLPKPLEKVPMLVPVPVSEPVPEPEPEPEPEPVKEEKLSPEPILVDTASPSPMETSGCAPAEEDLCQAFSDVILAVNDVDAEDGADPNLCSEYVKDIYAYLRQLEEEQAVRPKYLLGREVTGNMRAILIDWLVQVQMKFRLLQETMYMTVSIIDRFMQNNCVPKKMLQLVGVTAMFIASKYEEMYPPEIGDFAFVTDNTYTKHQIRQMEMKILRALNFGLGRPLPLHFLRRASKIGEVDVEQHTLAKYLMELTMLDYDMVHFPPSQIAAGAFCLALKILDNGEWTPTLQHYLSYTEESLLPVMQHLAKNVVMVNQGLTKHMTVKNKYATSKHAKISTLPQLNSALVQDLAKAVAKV

OVCA432 = assay: Antiproliferation assay, ovarian cancer cells; type: cell-based; settings: ovarian cancer cell proliferation
Procedure: as §2
(§3) Similar antiproliferation assays were performed using ovarian cancer cells. Compound 40 is of particular interest for inhibition of ovarian cancer cell proliferation.

SKOV3 = assay: Antiproliferation assay, ovarian cancer cells; type: cell-based; settings: Homo sapiens, SK-OV-3; ovarian cancer cell proliferation
Procedure: as §2, §3

CDK-2/cyclinA = CDK-2/cyclinA (Homo sapiens, UniProt P24941); assay: CDK panel (Reaction Biology); type: biochemical; settings: tested at Reaction Biology, Inc.
[3] = BXPC-3, as reported in Gaisina et al. (2009) J. Med. Chem. 52(7), 1853-1863
[4] = HuP-T3, as reported in Gaisina et al. (2009) J. Med. Chem. 52(7), 1853-1863
[5] = MIA PaCa-2, as reported in Gaisina et al. (2009) J. Med. Chem. 52(7), 1853-1863

Row | Molecule | IC50 [1] [nM] | IC50 Ratio CDK-2/cyclinE GSK-3β (CDK-2/cyclinE) | IC50 (CDK-2/cyclinE) [nM] | Inhibition of pancreatic cancer cell proliferation compared with AR-A014418 and SB216768 [2] | IC50 (MIAPaCa-2; MIA PaCa-2, 72 hrs, MTS) [µM] | IC50 (HupT3; [4]) [µM] | IC50 (HupT3; HuP-T3, 72 hrs, MTS) [µM] | further results
1 | 3-Benzofuran-3-yl-4-[5-bromo-1-(3-hydroxy-propyl)-1H-indol-3-yl]-pyrrole-2,5-dione [Compound 20] | 7.5 ± 1.1 | 150 | 1160 |  |  |  |  | Ki [1]: 5 nM; % Inhibition GSK3α (GSK3α; 1 μM): 58%; % Inhibition GSK3α (GSK3α; 10 μM): 100%; % Inhibition PKCβ2 (PKCβ2; 1 μM): 8%; % Inhibition PKCβ2 (PKCβ2; 10 μM): 62%; % Inhibition CDK2 (CDK2; 1 μM): 76%; % Inhibition CDK2 (CDK2; 10 μM): 90%; % Inhibition PDK1 (PDK1; 1 μM): 7%; % Inhibition PDK1 (PDK1; 10 μM): −1%
2 | Cn1cc(C2=C(c3coc4ccccc34)C(=O)NC2=O)c2ccccc21 [Compound 1, 3-Benzofuran-3-yl-4-(1-methyl-1H-indol-3-yl)-pyrrole-2,5-dione] | 35 ± 9 | 40 | 1410 | more effective inhibition of pancreatic cancer cell proliferation than these reference compounds | 3 |  |  | 
3 | Cn1cc(C2=C(c3coc4cc(CO)ccc34)C(=O)NC2=O)c2cc(F)ccc21 [Compound 7, 3-(5-Fluoro-1-methyl-1H-indol-3-yl)-4-(6-hydroxymethyl-benzofuran-3-yl)-pyrrole-2,5-dione] | 0.35 ± 0.06 |  | 237 |  |  |  |  | 
4 | Cn1cc(C2=C(c3coc4ccccc34)C(=O)NC2=O)c2cc(F)c(Cl)cc21 [Compound 12, 3-Benzofuran-3-yl-4-(6-chloro-5-fluoro-1-methyl-1H-indol-3-yl)-pyrrole-2,5-dione] | 184 ± 31 |  |  | more effective inhibition of pancreatic cancer cell proliferation than these reference compounds | < 1 | 2 ± 0.3 |  | IC50 (BXPC-3; [3]): 2 ± 0.2 µM; IC50 (MIAPaCa-2; [5]): 3 ± 0.4 µM
5 | O=C1NC(=O)C(c2cn(CCCO)c3ccc(Br)cc23)=C1c1coc2ccccc12 [Compound 21, 3-Benzofuran-3-yl-4-[5-bromo-1-(3-hydroxy-propyl)-1H-indol-3-yl]-pyrrole-2,5-dione] | 1.61 ± 0.09 |  |  |  |  |  |  | inhibition at 1 µM (GSK3α; 1 μM): 62%; inhibition at 10 µM (GSK3α; 10 μM): 99%; inhibition at 1 µM (PKCβ2; 1 μM): 62%; inhibition at 10 µM (PKCβ2; 10 μM): 83%; inhibition at 1 µM (CDK2; 1 μM): 62%; inhibition at 10 µM (CDK2; 10 μM): 95%; inhibition at 1 µM (PDK1; 1 μM): 80%; inhibition at 10 µM (PDK1; 10 μM): 92%
6 | Cn1cc(C2=C(c3coc4cc(CO)ccc34)C(=O)NC2=O)c2cc(Br)ccc21 [Compound 22, 3-(5-Bromo-1-methyl-1H-indol-3-yl)-4-(6-hydroxymethyl-benzofuran-3-yl)-pyrrole-2,5-dione] |  |  | 337 |  |  |  |  | IC50 (CDK-6/cyclinD3): 0.51 µM; IC50 (CDK-4/cyclinD1): 1.08 µM; IC50 (CDK-1/cyclinB): 0.93 µM; IC50 (OVCA432): 14.2 µM; IC50 (SKOV3): 51.5 µM; IC50 (CDK-2/cyclinA): 0.55 µM
7 | C#CCOc1ccc2c(C3=C(c4cn(C)c5ccc(Br)cc45)C(=O)NC3=O)coc2c1 [Compound 23, 3-(5-Bromo-1-methyl-1H-indol-3-yl)-4-(6-prop-2-ynyloxy-benzofuran-3-yl)-pyrrole-2,5-dione] | 25.3 ± 2.4 |  |  |  |  |  |  | inhibition at 1 µM (GSK3α; 1 μM): 84%; inhibition at 10 µM (GSK3α; 10 μM): 99%; inhibition at 1 µM (PKCβ2; 1 μM): 3%; inhibition at 10 µM (PKCβ2; 10 μM): 25%; inhibition at 1 µM (CDK2; 1 μM): 22%; inhibition at 10 µM (CDK2; 10 μM): 66%; inhibition at 1 µM (PDK1; 1 μM): 12%; inhibition at 10 µM (PDK1; 10 μM): 45%
8 | Cn1cc(C2=C(c3coc4ccc(F)cc34)C(=O)NC2=O)c2cc(Cl)ccc21 [Compound 27, 3-(5-Chloro-1-methyl-1H-indol-3-yl)-4-(5-fluoro-benzofuran-3-yl)-pyrrole-2,5-dione] | 34.5 ± 3.8 | 2.6 | 1840 |  |  |  |  | 
9 | Cn1cc(C2=C(c3coc4ccccc34)C(=O)NC2=O)c2cc(I)ccc21 [Compound 28, 3-Benzofuran-3-yl-4-(5-iodo-1-methyl-1H-indol-3-yl)-pyrrole-2,5-dione] | 15.5 ± 3.5 |  | 1070 |  |  | > 50 | > 50 | IC50 (OVCA432): 20 µM; IC50 (SKOV3): 26.7 µM
10 | N#Cc1ccc2c(c1)c(C1=C(c3coc4cc(F)c(F)cc34)C(=O)NC1=O)cn2CC1CC1 [Compound 35, 1-Cyclopropylmethyl-3-[4-(5,6-difluoro-benzofuran-3-yl)-2,5-dioxo-2,5-dihydro-1H-pyrrol-3-yl]-1H-indole-5-carbonitrile] | 131 ± 22 |  |  |  | 14 |  | > 50 | IC50 (BXPC-3; BXPC-3, 72 hrs, MTS): > 50 µM
11 | Cn1cc(C2=C(c3coc4ccccc34)C(=O)NC2=O)c2cc(C3CC3)ccc21 [Compound 37, 3-Benzofuran-3-yl-4-(5-cyclopropyl-1-methyl-1H-indol-3-yl)-pyrrole-2,5-dione] | 235 ± 15 |  | 32000 |  |  |  |  | 
12 | Cn1cc(C2=C(c3coc4ccc(F)cc34)C(=O)NC2=O)c2cc(C#CC3CC3)ccc21 [Compound 38, 3-(5-Cyclopropylethynyl-1-methyl-1H-indol-3-yl)-4-(5-fluoro-benzofuran-3-yl)-pyrrole-2,5-dione] | 16.2 ± 3.9 |  |  | more effective inhibition of pancreatic cancer cell proliferation than these reference compounds | 34 | > 50 | > 50 | IC50 (BXPC-3; [3]): > 50 µM; IC50 (BXPC-3; BXPC-3, 72 hrs, MTS): > 50 µM; IC50 (MIAPaCa-2; [5]): 34 ± 2.2 µM
13 | COc1cccc2c(C3=C(c4cn(C)c5cc(C(F)(F)F)ccc45)C(=O)NC3=O)coc12 [Compound 49, 3-(7-Methoxy-benzofuran-3-yl)-4-(1-methyl-6-trifluoromethyl-1H-indol-3-yl)-pyrrole-2,5-dione] | 831 ± 77 |  |  | more effective inhibition of pancreatic cancer cell proliferation than these reference compounds | 8 | 6 ± 0.5 | 6 | IC50 (BXPC-3; [3]): 6 ± 0.8 µM; IC50 (BXPC-3; BXPC-3, 72 hrs, MTS): 6 µM; IC50 (MIAPaCa-2; [5]): 8 ± 1.2 µM
14 | Cn1cc(C2=C(c3coc4cc(F)c(F)cc34)C(=O)NC2=O)c2ccc3ccccc3c21 [Compound 55, 3-(5,6-Difluoro-benzofuran-3-yl)-4-(1-methyl-1H-benzo[g]indol-3-yl)-pyrrole-2,5-dione] | 314 ± 19 |  |  | more effective inhibition of pancreatic cancer cell proliferation than these reference compounds | 17 | 6 ± 0.7 | 6 | IC50 (BXPC-3; BXPC-3, 72 hrs, MTS): 7 µM; IC50 (MIAPaCa-2; [5]): 17 ± 3.2 µM
15 | Cn1cc(C2=C(c3coc4ccccc34)C(=O)NC2=O)c2cccc(CO)c21 [Compound 82] |  | 27 | 149 |  |  |  |  | 
16 | Cn1cc(C2=C(c3coc4cc(CO)ccc34)C(=O)NC2=O)c2cccc(CO)c21 [Compound 83] |  | 5 | 27 |  |  |  |  | 
